For assay [1], the system named is MV-4-11 cells. Put plainly: MV-4-11 cell proliferation assay (CellTiter-Glo 2.0). Format: cell-based. The following applies: MV-4-11, 384-well, 11-dose dilution series, read-out: IC50, inhibition of MV-4-11 cell proliferation. The method, then: MV-4-11 cell line was purchased from ATCC and maintained in RPMI medium supplemented with 10% fetal bovine serum and 100 U/mL of penicillin/streptomycin. One thousand MV-4-11 cells/50 μl per well were seeded in white 384-well plate, followed by treatment with indicated compounds in a 11-dose dilution series. Cell proliferation was measured using CellTiter-Glo 2.0 luciferase-based ATP detection assay (Promega, Madison, WI) following the manufacturer's protocol. Plates were then read on a TECAN Sparks multimode microplate reader. Data was analyzed using GraphPad Prism 9 (GraphPad Software, San Diego, CA) to obtain IC50 values.
A general note: In ATP-based viability assays light output follows the ATP content of the culture.

Assay [2] concerns the target CLK3 (Homo sapiens (Human), UniProt P49761). Put plainly: CLK kinase activity assay (ADP-Glo). The class given is biochemical. The method, then:
(§1) Kinase protein and substrate were pre-diluted in the HEPES assay buffer (100 mM HEPES, pH 7.5, 0.01% Triton X-100, 0.1% BSA, 5 mM MgCl2, 1 mM DTT, 10 μM Sodium Orthovanadate, 10 μM Beta-Glycerophosphate) dispensed into 384 well plate (5 μL per well). Control samples (0%-inhibition in the absence of inhibitor, DMSO only) and 100%-inhibition (in the absence of enzyme) were assembled in replicates of six and were used to calculate %-inhibition in the presence of compounds. Test compounds were added to the protein samples by acoustic dispensing (Labcyte Echo550). Concentration of DMSO was equalized to 1% in all samples. Reactions were initiated by addition of ATP by acoustic dispensing (Labcyte Echo550) and incubated according to assay specific incubation time. After incubation, 5 uL of Promega ADP-Glo reagent was added and incubated for 40 minutes. After 40 minutes, 10 uL of Promega kinase detection reagent was added. After 10 min of incubation with Kinase detection reagent, the luminescence was read on microplate reader (Biotek Synergy).
A general note: ADP-Glo turns the ADP formed in a reaction into a luminescent signal.

Assay [3] addresses CLK2 (Homo sapiens (Human), UniProt P49760). Put plainly: CLK kinase activity assay (ADP-Glo). Format: biochemical. The procedure:
as §1

For assay [4], the target named is CLK4 (Homo sapiens (Human), UniProt Q9HAZ1). Put plainly: CLK kinase activity assay (ADP-Glo). Format: biochemical. The method, then: as §1
Sequence of CLK4 (Q9HAZ1 whole entry): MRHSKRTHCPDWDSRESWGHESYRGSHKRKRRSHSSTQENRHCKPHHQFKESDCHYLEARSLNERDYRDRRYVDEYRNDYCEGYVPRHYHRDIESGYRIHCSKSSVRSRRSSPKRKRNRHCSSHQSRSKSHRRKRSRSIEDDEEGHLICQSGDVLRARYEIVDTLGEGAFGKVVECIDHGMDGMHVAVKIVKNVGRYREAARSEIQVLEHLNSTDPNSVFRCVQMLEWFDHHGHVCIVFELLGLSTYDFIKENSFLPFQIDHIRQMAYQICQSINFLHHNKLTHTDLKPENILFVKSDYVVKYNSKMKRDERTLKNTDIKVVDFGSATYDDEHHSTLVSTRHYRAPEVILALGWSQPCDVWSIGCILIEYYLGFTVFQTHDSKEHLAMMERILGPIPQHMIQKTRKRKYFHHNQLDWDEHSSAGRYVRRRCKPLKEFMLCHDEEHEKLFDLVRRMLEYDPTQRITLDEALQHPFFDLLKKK
Assay [5] has as its target CLK1 (Homo sapiens (Human), UniProt P49759). Put plainly: CLK kinase activity assay (ADP-Glo). Format: biochemical. The procedure: as §1
Assay [6] concerns the target FLT3-ITD (Homo sapiens, UniProt P36888, ITD). Put plainly: HotSpot radiometric kinase assay (Reaction Biology). The class given is biochemical.
Experimental: (§2) Briefly, specific kinase/substrate pairs along with required cofactors were prepared in reaction buffer; 20 mM Hepes pH 7.5, 10 mM MgCl2, 1 mM EGTA, 0.02% Brij35, 0.02 mg/ml BSA, 0.1 mM Na3VO4, 2 mM DTT, 1% DMSO. Compounds were delivered into the reaction, followed ˜20 minutes later by addition of a mixture of ATP (Sigma, St. Louis MO) and ^33P ATP (Perkin Elmer, Waltham MA) to a final concentration of 10 M. Reactions were carried out at room temperature for 120 min, followed by spotting of the reactions onto P81 ion exchange filter paper (Whatman Inc., Piscataway, NJ). Unbound phosphate was removed by extensive washing of filters in 0.75% phosphoric acid. […] IC50 values and curve fits were obtained using Prism (GraphPad Software).
Assay [7] addresses FLT3 (Homo sapiens (Human), UniProt P36888). Described as above. Format: biochemical.
Experimental: as §2

The record followed here is patent publication US20260070924A1, “INDAZOLE MACROCYCLES AND THEIR USE” (BLOSSOMHILL THERAPEUTICS, INC., priority 2022, published 2026).

pIC50: −log10 of the molar value. Like-named read-outs stand apart in the source and are kept apart here. Some results are limits rather than exact numbers.

Sequence of CLK2 (P49760 whole entry): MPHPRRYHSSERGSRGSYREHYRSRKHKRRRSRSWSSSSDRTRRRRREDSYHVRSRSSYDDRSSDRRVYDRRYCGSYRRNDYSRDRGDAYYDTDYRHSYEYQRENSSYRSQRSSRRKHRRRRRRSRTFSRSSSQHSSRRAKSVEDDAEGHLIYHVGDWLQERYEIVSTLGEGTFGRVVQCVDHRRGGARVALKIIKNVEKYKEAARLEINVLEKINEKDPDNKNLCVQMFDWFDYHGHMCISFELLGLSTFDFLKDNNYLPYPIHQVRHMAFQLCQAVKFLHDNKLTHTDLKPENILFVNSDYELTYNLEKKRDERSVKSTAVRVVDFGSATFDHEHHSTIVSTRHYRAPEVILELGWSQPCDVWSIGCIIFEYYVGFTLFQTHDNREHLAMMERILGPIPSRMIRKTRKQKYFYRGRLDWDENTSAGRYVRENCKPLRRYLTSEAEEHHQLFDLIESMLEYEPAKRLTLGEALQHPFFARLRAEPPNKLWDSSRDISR
Sequence of FLT3 (P36888 27-993): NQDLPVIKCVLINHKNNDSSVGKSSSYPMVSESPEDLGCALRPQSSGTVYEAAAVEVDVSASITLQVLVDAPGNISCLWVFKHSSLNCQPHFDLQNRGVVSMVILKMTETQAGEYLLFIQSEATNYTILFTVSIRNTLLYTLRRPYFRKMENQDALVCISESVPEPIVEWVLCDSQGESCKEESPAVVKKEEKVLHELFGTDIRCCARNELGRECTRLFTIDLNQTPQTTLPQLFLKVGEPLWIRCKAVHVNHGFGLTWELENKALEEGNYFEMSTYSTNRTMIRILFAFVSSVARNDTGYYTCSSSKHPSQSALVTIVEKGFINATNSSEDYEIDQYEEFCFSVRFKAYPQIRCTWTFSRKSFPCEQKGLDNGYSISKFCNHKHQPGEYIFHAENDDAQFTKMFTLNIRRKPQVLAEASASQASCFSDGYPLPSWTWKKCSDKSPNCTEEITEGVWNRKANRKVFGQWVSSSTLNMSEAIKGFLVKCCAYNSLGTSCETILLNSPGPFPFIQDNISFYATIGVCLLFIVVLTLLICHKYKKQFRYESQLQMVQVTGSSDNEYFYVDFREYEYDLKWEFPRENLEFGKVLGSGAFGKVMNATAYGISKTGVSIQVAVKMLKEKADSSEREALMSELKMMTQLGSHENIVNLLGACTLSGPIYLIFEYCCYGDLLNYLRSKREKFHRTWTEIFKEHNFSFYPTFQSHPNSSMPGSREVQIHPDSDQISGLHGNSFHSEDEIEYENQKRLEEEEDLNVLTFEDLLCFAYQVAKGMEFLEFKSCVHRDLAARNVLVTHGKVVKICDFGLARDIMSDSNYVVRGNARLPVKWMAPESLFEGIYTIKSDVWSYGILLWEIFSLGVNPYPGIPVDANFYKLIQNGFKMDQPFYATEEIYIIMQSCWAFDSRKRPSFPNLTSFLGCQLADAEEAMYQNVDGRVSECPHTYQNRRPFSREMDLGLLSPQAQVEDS
Sequence of CLK1 (P49759 whole entry): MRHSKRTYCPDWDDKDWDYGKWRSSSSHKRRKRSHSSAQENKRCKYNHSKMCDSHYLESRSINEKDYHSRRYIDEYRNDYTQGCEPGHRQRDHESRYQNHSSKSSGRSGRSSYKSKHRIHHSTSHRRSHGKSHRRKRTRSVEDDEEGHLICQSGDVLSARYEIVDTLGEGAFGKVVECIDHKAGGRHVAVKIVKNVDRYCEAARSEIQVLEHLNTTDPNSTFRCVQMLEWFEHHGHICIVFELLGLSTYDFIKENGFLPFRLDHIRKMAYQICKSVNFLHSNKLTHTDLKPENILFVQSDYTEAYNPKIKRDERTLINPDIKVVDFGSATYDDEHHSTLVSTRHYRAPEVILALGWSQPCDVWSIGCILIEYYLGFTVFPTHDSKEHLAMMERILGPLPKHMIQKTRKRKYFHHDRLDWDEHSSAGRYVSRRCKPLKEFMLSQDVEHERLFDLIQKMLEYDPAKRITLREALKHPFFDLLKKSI
Sequence of FLT3-ITD (P36888 whole entry, looked up, change not shown): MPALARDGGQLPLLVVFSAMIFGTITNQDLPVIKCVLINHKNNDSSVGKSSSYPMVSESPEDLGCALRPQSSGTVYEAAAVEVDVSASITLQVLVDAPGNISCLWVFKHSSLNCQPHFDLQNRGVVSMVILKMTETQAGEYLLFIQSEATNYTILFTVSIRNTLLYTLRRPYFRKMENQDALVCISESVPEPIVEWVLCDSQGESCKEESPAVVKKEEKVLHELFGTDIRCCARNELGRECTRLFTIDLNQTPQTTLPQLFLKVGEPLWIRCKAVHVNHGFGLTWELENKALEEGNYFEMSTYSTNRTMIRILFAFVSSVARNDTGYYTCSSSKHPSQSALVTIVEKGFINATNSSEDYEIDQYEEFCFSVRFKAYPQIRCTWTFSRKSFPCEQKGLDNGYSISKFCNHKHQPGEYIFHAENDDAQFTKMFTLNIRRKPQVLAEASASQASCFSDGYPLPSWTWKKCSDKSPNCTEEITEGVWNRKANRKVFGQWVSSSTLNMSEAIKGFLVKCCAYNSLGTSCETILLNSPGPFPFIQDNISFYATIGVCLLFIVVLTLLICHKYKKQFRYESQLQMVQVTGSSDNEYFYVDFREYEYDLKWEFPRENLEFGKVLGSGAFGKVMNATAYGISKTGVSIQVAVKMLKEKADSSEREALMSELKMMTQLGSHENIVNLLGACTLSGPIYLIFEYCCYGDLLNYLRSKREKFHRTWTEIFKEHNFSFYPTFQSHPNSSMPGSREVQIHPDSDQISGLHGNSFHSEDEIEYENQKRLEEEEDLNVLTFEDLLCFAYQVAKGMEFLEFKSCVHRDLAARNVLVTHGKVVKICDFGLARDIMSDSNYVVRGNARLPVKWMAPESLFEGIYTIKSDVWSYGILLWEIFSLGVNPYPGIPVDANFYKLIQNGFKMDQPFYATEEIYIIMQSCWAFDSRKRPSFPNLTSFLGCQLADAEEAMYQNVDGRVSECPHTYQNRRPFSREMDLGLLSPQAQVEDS
Sequence of CLK3 (P49761 whole entry): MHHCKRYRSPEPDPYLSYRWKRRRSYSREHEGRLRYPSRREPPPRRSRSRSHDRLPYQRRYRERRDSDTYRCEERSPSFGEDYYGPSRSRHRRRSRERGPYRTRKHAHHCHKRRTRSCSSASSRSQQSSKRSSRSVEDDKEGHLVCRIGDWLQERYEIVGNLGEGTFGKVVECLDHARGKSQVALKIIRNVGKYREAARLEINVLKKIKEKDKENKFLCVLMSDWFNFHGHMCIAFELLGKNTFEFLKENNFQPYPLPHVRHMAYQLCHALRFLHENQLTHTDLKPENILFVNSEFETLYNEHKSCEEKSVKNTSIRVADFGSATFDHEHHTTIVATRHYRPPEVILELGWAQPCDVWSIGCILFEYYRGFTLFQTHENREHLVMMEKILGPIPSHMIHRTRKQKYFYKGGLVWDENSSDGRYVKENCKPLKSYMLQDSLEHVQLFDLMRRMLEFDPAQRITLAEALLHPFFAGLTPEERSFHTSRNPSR

In the case of `CCc1c2c(nn1C)C(=O)N(C)CCOc1ccc(F)cc1-c1ccc3[nH]nc(c3c1)/C=C/2` [Ex. 1, (18E)-17-ethyl-7-fluoro-13,16-dimethyl-2,12,13,16-tetrahydro-3,5-ethenodipyrazolo[3,4-f:3′,4′-j][1,4]benzoxazacyclopentadecin-14(11H)-one], the pIC50 in assay [1] (Homo sapiens, MV4-11) is 5.93.
`CCc1nn(C)c2c1/C=C/c1n[nH]c3ccc(cc13)-c1cc(F)ccc1OCCN(C)C2=O` [Ex. 2, (18E)-17-ethyl-7-fluoro-13,15-dimethyl-2,12,13,15-tetrahydro-3,5-ethenodipyrazolo[3,4-f:3′,4′-j][1,4]benzoxazacyclopentadecin-14(11H)-one]: the pIC50 in assay [1] (Homo sapiens, MV4-11) was 6.45.
Same read-out and setting: the figure for `Cc1c2c(nn1C)C(=O)NCCOc1c(cnn1C)-c1ccc3[nH]nc(c3c1)/C=C/2` [Ex. 10, (17E)-8,15,16-trimethyl-2,11,12,15-tetrahydro-8H-3,5-ethenotripyrazolo[3,4-f:3′,4′-j:4″,3″-n][1,4]oxazacyclopentadecin-13(10H)-one] is 6.06.
For `Cc1nn(C)c2c1/C=C/c1n[nH]c3ccc(cc13)-c1cnn(C)c1OCCCN(C)C2=O` [Ex. 13, (18E)-8,13,15,17-tetramethyl-2,10,11,12,13,15-hexahydro-3,5-ethenotripyrazolo[3,4-g:3′,4′-k:4″,3″-o][1,5]oxazacyclohexadecin-14(8H)-one], in assay [1] (Homo sapiens, MV4-11), the pIC50 was 7.81.
On to `Cc1nn(C)c2c1/C=C/c1n[nH]c3ccc(cc13)-c1cnn(C)c1CN(C)CCN(C)C2=O` [Ex. 15, (18E)-8,10,13,15,17-pentamethyl-2,8,9,10,11,12,13,15-octahydro-14H-3,5-ethenotripyrazolo[3,4-f:3′,4′-j:4″,3″-n][1,4]diazacyclohexadecin-14-one], for which the pIC50 in assay [1] (Homo sapiens, MV4-11) is 8.34; in assay [2] it was 8.56; in assay [3], 9.79; in assay [4], 9.28; in assay [5], 9.80.
As to `Cc1nn(CCO)c2c1/C=C/c1n[nH]c3ccc(cc13)-c1cnn(C)c1OCCN(C)C2=O` [Ex. 16, (17E)-14-(2-hydroxyethyl)-8,12,16-trimethyl-2,11,12,14-tetrahydro-8H-3,5-ethenotripyrazolo[3,4-f:3′,4′-j:4″,3″-n][1,4]oxazacyclopentadecin-13(10H)-one], the pIC50 in assay [1] (Homo sapiens, MV4-11) was > 9.00; in assay [2], 7.98; in assay [3] it was 9.80; in assay [4], 9.12; in assay [5] it was 9.52.
For `Cc1nn(CCN2CCCC2)c2c1/C=C/c1n[nH]c3ccc(cc13)-c1cnn(C)c1OCCN(C)C2=O` [Ex. 18, (17E)-8,12,16-trimethyl-14-[2-(pyrrolidin-1-yl)ethyl]-2,11,12,14-tetrahydro-8H-3,5-ethenotripyrazolo[3,4-f:3′,4′-j:4″,3″-n][1,4]oxazacyclopentadecin-13(10H)-one], the pIC50 in assay [1] (Homo sapiens, MV4-11) was 7.75.
In the case of `Cc1c2c(nn1CCN1CCCC1)C(=O)N(C)CCOc1c(cnn1C)-c1ccc3[nH]nc(c3c1)/C=C/2` [Ex. 19, (17E)-8,12,16-trimethyl-15-[2-(pyrrolidin-1-yl)ethyl]-2,11,12,15-tetrahydro-8H-3,5-ethenotripyrazolo[3,4-f:3′,4′-j:4″,3″-n][1,4]oxazacyclopentadecin-13(10H)-one], the pIC50 was 8.98 in assay [6]; 7.82 in assay [1] (Homo sapiens, MV4-11); 9.25 in assay [7].
With `CCOc1nn(C)c2c1/C=C/c1n[nH]c3ccc(cc13)-c1cnn(C)c1OCCN(C)C2=O` [Ex. 22, (17E)-16-ethoxy-8,12,14-trimethyl-2,11,12,14-tetrahydro-8H-3,5-ethenotripyrazolo[3,4-f:3′,4′-j:4″,3″-n][1,4]oxazacyclopentadecin-13(10H)-one], the pIC50 in assay [6] was 9.28; in assay [1] (Homo sapiens, MV4-11), > 9.70; in assay [2] it was 8.02; in assay [3] it was 9.60; in assay [4], 9.18; in assay [5] it was 9.45. The pIC50 in assay [7] was 10.03.
In the case of `CCc1nn(C)c2c1/C=C/c1n[nH]c3ccc(cc13)-c1cnn(C)c1O[C@@H](C)CN(C)C2=O` [Ex. 23, (10S,17E)-16-ethyl-8,10,12,14-tetramethyl-2,11,12,14-tetrahydro-8H-3,5-ethenotripyrazolo[3,4-f:3′,4′-j:4″,3″-n][1,4]oxazacyclopentadecin-13(10H)-one], the pIC50 in assay [6] is 9.01; in assay [1] (Homo sapiens, MV4-11), 8.39; in assay [2], 8.26; in assay [3], 9.65; in assay [4], 8.86; in assay [5] it was 9.07. Further, in assay [7], the pIC50 was 9.38.
For the molecule `CCc1noc2c1/C=C/c1n[nH]c3ccc(cc13)-c1cnn(C)c1OCCN(C)C2=O` [Ex. 25, (17E)-16-ethyl-8,12-dimethyl-2,8,11,12-tetrahydro-3,5-etheno[1,2]oxazolo[5,4-f]dipyrazolo[3,4-j:4′,3′-n][1,4]oxazacyclopentadecin-13(10H)-one], the pIC50 in assay [1] (Homo sapiens, MV4-11) was 9.28.
With `CCOc1nn(CCO)c2c1/C=C/c1n[nH]c3ccc(cc13)-c1cnn(C)c1OCCN(C)C2=O` [Ex. 27, (17E)-16-ethoxy-14-(2-hydroxyethyl)-8,12-dimethyl-2,11,12,14-tetrahydro-8H-3,5-ethenotripyrazolo[3,4-f:3′,4′-j:4″,3″-n][1,4]oxazacyclopentadecin-13(10H)-one], the pIC50 was 8.12 in assay [1] (Homo sapiens, MV4-11); 6.97 in assay [2]; 8.95 in assay [3]; 8.52 in assay [4]; 8.81 in assay [5].
As for `CN1CCOc2c(cnn2C)-c2ccc3[nH]nc(c3c2)/C=C/c2cn(C)nc2C1=O` [compound 4, (17E)-8,12,15-trimethyl-2,11,12,15-tetrahydro-8H-3,5-ethenotripyrazolo[3,4-f:3′,4′-j:4″,3″-n][1,4]oxazacyclopentadecin-13(10H)-one], the pIC50 in assay [1] (Homo sapiens, MV4-11) was 7.67.
Turning to `CCc1c2c(nn1C)C(=O)N(C)CCOc1ccc(F)cc1-c1cc(Cl)c3[nH]nc(c3c1)/C=C/2` [compound 5, (18E)-21-chloro-17-ethyl-7-fluoro-13,16-dimethyl-2,12,13,16-tetrahydro-3,5-ethenodipyrazolo[3,4-f:3′,4′-j][1,4]benzoxazacyclopentadecin-14(11H)-one], the pIC50 in assay [1] (Homo sapiens, MV4-11) is < 5.00.
Still for that read-out and setting: as for `CCn1nc(C)c2c1C(=O)N(C)CCOc1c(cnn1C)-c1ccc3[nH]nc(c3c1)/C=C/2` [compound 11, (17E)-14-ethyl-8,12,16-trimethyl-2,11,12,14-tetrahydro-8H-3,5-ethenotripyrazolo[3,4-f:3′,4′-j:4″,3″-n][1,4]oxazacyclopentadecin-13(10H)-one], the figure is > 9.70; as for `Cc1nn(C)c2c1/C=C/c1n[nH]c3ccc(cc13)-c1cnn(C)c1OCCOCCN(C)C2=O` [compound 14, (15E)-3,10,12,14-tetramethyl-5,6,9,10,12,18-hexahydro-3H-19,21-ethenotripyrazolo[3,4-i:3′,4′-m:4″,3″-q][1,4,7]dioxazacyclooctadecin-11(8H)-one], 6.42.
As for `Cc1nn(C(C)C)c2c1/C=C/c1n[nH]c3ccc(cc13)-c1cnn(C)c1OCCN(C)C2=O` [compound 20, (17E)-8,12,16-trimethyl-14-(propan-2-yl)-2,11,12,14-tetrahydro-8H-3,5-ethenotripyrazolo[3,4-f:3′,4′-j:4″,3″-n][1,4]oxazacyclopentadecin-13(10H)-one], the pIC50 was 9.11 in assay [6]; 8.96 in assay [1] (Homo sapiens, MV4-11); 9.73 in assay [7].
For the molecule `[2H]C([2H])([2H])N1CCOc2c(cnn2C)-c2ccc3[nH]nc(c3c2)/C=C/c2c(CC)nn(C([2H])([2H])[2H])c2C1=O` [compound 21, (17E)-16-ethyl-8-methyl-12,14-bis[(^2H3)methyl]-2,11,12,14-tetrahydro-8H-3,5-ethenotripyrazolo[3,4-f:3′,4′-j:4″,3″-n][1,4]oxazacyclopentadecin-13(10H)-one], the pIC50 in assay [1] (Homo sapiens, MV4-11) was > 9.70.
Take “(18E)-15-(2-hydroxyethyl)-8,10,13,17-tetramethyl-2,8,9,10,11,12,13,15-octahydro-14H-3,5-ethenotripyrazolo[3,4-f:3′,4′-j:4″,3″-n][1,4]diazacyclohexadecin-14-one [Ex. 26]”: the pIC50 in assay [1] was 7.82; in assay [2], 7.51; in assay [3], 9.41; in assay [4], 9.22; in assay [5] it was 9.63.
